According to PMC3420360 (Bioorganic & medicinal chemistry letters, 2010):

Key:
rat TRPV1 [1] = molecular target: T1, rat TRPV1 (Rattus norvegicus, UniProt O35433); experiment: functional 45Ca2+ uptake assay, agonism; type: cell-based; details: for functional pattern of agonism/antagonism: 45Ca2+ uptake, rat TRPV1 in CHO cells, result in words; for fold less potent than RTX for functional activity: agonism EC50 versus RTX
rat TRPV1 [2] = molecular target: T1, rat TRPV1; type: cell-based; details: Ki(ant) versus 5'-iodo RTX under the same assay conditions

T1 sequence (O35433 whole entry): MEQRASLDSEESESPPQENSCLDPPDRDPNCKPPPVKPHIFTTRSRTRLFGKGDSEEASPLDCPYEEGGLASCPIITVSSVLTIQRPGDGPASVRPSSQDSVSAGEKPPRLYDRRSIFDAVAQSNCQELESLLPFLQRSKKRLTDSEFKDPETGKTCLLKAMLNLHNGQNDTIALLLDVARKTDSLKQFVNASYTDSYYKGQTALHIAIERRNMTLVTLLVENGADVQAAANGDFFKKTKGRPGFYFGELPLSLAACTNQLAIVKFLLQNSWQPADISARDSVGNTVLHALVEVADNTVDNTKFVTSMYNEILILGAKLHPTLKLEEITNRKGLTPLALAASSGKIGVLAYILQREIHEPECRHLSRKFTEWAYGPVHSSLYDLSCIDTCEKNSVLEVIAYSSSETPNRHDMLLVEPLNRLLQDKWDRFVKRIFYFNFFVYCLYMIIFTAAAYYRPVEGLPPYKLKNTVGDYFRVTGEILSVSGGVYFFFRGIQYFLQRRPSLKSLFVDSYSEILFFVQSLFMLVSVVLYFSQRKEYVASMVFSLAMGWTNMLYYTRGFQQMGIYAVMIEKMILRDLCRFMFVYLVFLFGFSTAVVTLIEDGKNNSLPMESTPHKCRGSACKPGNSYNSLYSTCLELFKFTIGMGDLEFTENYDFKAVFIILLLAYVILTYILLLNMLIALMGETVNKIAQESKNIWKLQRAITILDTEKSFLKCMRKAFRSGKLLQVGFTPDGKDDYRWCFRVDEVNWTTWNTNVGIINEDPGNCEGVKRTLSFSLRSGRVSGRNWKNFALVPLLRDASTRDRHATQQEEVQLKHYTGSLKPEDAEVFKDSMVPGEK

Structure (SMILES)	functional pattern of agonism/antagonism (rat TRPV1 [1])	other results
C=C(C)[C@@]12C[C@@H](C)C34OC(Cc5ccccc5)(OC1[C@@H]3C=C(COC(=O)Cc1cc(I)c(O)c(OC)c1)C[C@]1(O)C(=O)C(C)=C[C@@H]41)O2 (some centres unmarked) [compound 2, 5-iodo RTX, reference compound]	full antagonist	
C=C(C)[C@@]12C[C@@H](C)C34OC(Cc5ccccc5)(OC1[C@@H]3C=C(COC(=O)Cc1cc(F)c(O)c(OC)c1)C[C@]1(O)C(=O)C(C)=C[C@@H]41)O2 (some centres unmarked) [compound 31]	full agonists	fold less potent than RTX for functional activity (rat TRPV1 [1]): 9 fold
C=C(C)[C@@]12C[C@@H](C)C34OC(Cc5ccccc5)(OC1[C@@H]3C=C(COC(=O)Cc1cc(Cl)c(O)c(OC)c1)C[C@]1(O)C(=O)C(C)=C[C@@H]41)O2 (some centres unmarked) [compound 32]	full agonists	fold less potent than RTX for functional activity (rat TRPV1 [1]): 21 fold
C=C(C)[C@@]12C[C@@H](C)C34OC(Cc5ccccc5)(OC1[C@@H]3C=C(COC(=O)Cc1cc(Br)c(O)c(OC)c1)C[C@]1(O)C(=O)C(C)=C[C@@H]41)O2 (some centres unmarked) [compound 33]	partial antagonist	
C=C(C)[C@@]12C[C@@H](C)C34OC(Cc5ccccc5)(OC1[C@@H]3C=C(COC(=O)Cc1cc(Br)cc(Br)c1)C[C@]1(O)C(=O)C(C)=C[C@@H]41)O2 (some centres unmarked) [compound 35]	full agonist	
C=C(C)[C@@]12C[C@@H](C)C34OC(Cc5ccccc5)(OC1[C@@H]3C=C(COC(=O)Cc1ccc(N)c(OC)c1)C[C@]1(O)C(=O)C(C)=C[C@@H]41)O2 (some centres unmarked) [compound 36, 4-amino RTX]	potent full agonism	fold less potent than RTX (Ki and EC50) (rat TRPV1 [1]; both binding Ki and agonism EC50 compared with RTX): 2–3 fold
C=C(C)[C@@]12C[C@@H](C)C34OC(Cc5ccccc5)(OC1[C@@H]3C=C(COC(=O)Cc1cc(F)c(N)c(OC)c1)C[C@]1(O)C(=O)C(C)=C[C@@H]41)O2 (some centres unmarked) [compound 37]	full agonist	fold less potent than the parent 36 (agonism) (rat TRPV1 [1]; agonism EC50 versus 4-amino RTX (36)): 2.5 fold
C=C(C)[C@@]12C[C@@H](C)C34OC(Cc5ccccc5)(OC1[C@@H]3C=C(COC(=O)Cc1cc(Cl)c(N)c(OC)c1)C[C@]1(O)C(=O)C(C)=C[C@@H]41)O2 (some centres unmarked) [compound 38]	partial antagonist	
C=C(C)[C@@]12C[C@@H](C)C34OC(Cc5ccccc5)(OC1[C@@H]3C=C(COC(=O)Cc1cc(Br)c(N)c(OC)c1)C[C@]1(O)C(=O)C(C)=C[C@@H]41)O2 (some centres unmarked) [compound 39, 5-bromo-4-amino RTX]	full antagonist	fold more potent than I-RTX as antagonist (rat TRPV1 [2]): 4 fold
